This is an account of results in US9952300B2, “Dynamic contrast enhanced MRI method and agents for the assessment of the macromolecular transport within pathologic tissues” (BRACCO IMAGING S.P.A., priority 2012, dated 2018).

For data set [1], the target named is T1, Human Serum Albumin (Homo sapiens, UniProt P02768). Particulars: literature; cited from earlier work.
Data set [2] has as its target T1, Human Serum Albumin. The data set can be described thus: Binding (%) of the paramagnetic complex to human serum proteins/albumin by centrifugal ultrafiltration. Details: purchased Nycomed Phama; host or cells: Seronorm Human, reconstituted (lyophilised) human serum. Format: in vitro ADME. The text has this:
Preferred albumin binding agents according to the invention include paramagnetic contrast agents having molecular weight lower than 5,000 Da, preferably lower that 3,000 Da and, more preferably, comprised from 800 to 3,000 Da, that further display an in-vivo non-covalent protein binding with the Human Serum Albumin (or HSA, or albumin, as herein used interchangeably) equal to or higher that 85%, preferably higher than 90% and, more preferably, higher than 95%, expressed in terms of % of the agent amount that is non-covalently bound to serum albumin, measured by centrifugal ultrafiltration (Centrifree®) from a 0.5 mM solution of the agent in Seronorm® incubated at 37° C., according to the procedure disclosed, for instance, in Invest.Radiol. 2006, 41: 279-291; Whitlam J B, Brown K F. Ultrafiltration in serum protein binding determinations. J.Pharm.Sci. 1981; 70:146-150, and in the Example 2 of the Experimental section.
The binding (%) has been determined by with the method of the centrifugal ultrafiltration as described in: Whitlam J B, Brown K F Ultrafiltration in serum protein binding determination. J. Pharm Sci. 1981; 70:146-150; Bowers W F, Fulton S, thompson J. Ultrafiltration vs equilibrium dialysis for determination of free fraction. […]
The albumin serum protein binding was analysed in a human serum solution (Seronorm Human, Nycomed Phama) where each complex was added at a concentration of Gd(III) ion of 0.5 mM. […] The percent of Gd(III)-complex bound (% B) was determined by equation: % B=[(Ct−Cf)/Ct]*100 where Ct is the total amount of Gd(III) in the incubated solution and Cf is the free Gd(III) complex found in the permeate solution. The average bound fraction was assessed from ultrafiltration experiments carried out in triplicate. […]
The above solution (0.300 mL) was added to 15 mL of reconstituted human serum. […] The protein free permeate solution (0.4 mL) was collected and Cf was measured by ICP-MS analysis. […]
From obtained Cf values the percent of bound Gd-complex was determined by application of the following equation % B=[(Ct−Cf)/Ct]*100 where Ct is 0.460 mM (S.D.: 0.015). […]

Data set [3] relates to A431 human epidermoid carcinoma xenografts. The data set can be described thus: Fluorescence microscopy of Cy5-CTX distribution in A431 xenografts after PTX or vehicle (Example 5). Format: in vivo, NCR athymic nude mice. The protocol: Cy5-CTX: The fluorescently labeled monoclonal Antibody (mAb) was prepared in house, by conjugating the monoclonal antibody (3.51 mg/mL in citrate-TEA buffer, obtained by buffer exchange from the commercial glycine solution of the mAb) with the commercially available fluorescent cyanine Cy5-NHS ester by using typical and well experienced procedures known in the art. Molar ratio dye/mAb in the conjugated product=2. Albumin-Fluoresceinisothiocyanate: (Albumin-FITC, by Sigma-Aldrich, 10 mg/mL solution). Optical Imaging Protocol […]
Forty-five histological images were acquired, corresponding to approximately 3 sections per tumor. Each image consisted in a stack of two channels corresponding to the fluorescence signal obtained from the dye Cyanine 5 (Cy5) and Fluorescein isothiocyanate (FITC).
The spatial distribution of the Cy5-CTX staining was analyzed calculating for each pixel its distance from the nearest vessel wall using FITC-Alb images (Distance Map FIG. 9 panel c). In the corresponding Cy5-CTX image, the Cy5-CTX signal was then expressed as a function of the pixel distance from the vessel wall (CTX decay curve). […]
Fluorescent CTX decay curves were measured for each tumor section acquired by fluorescence microscopy over distances ranging from 0 to about 700 μm from the nearest vessel wall. […]

Several values for one entry are separate records, joined by “and”; a condition that tells them apart may be missing. Equal values may be shown once.

T1 sequence (P02768 25-609): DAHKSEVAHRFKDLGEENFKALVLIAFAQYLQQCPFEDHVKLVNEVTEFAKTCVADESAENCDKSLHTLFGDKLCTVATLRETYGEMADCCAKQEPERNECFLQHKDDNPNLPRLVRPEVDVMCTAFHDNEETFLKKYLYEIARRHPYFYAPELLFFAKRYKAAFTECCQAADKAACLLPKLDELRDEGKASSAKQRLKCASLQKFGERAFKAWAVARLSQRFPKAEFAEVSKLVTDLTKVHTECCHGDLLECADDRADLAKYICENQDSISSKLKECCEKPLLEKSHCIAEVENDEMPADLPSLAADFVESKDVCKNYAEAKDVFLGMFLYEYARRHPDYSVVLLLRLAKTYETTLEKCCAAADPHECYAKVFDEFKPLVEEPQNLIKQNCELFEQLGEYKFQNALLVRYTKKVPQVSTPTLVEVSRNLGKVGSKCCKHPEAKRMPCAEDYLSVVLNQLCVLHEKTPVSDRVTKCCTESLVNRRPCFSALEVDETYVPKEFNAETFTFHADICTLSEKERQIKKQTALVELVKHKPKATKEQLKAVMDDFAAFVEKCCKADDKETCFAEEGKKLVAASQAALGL

Consider `C[C@H](CCC(=O)[O-])[C@H]1CC[C@H]2[C@@H]3CC[C@@H]4C[C@@H](NC(=O)CC[C@@H](C(=O)[O-])N(CCN(CC(=O)[O-])CC(=O)[O-])CCN(CC(=O)[O-])CC(=O)[O-])CC[C@]4(C)[C@H]3C[C@H](O)[C@]12C.[Gd+3].[Na+].[Na+].[Na+]` [B22956/1, Gadocoletic acid trisodium salt], for which, on Human Serum Albumin [1], the “non-covalent binding with Human Serum Albumin” value is on record as “about 95%”. On Human Serum Albumin [2] (0.5 mM Gd(III) complex in Seronorm human serum, 10 min at 37° C., 30 KDa MWCO ultrafiltration, per permeate A, B, C, trisodium salt), the “Average Gd(III), Cf (free Gd(III) complex in the permeate solution)” value was 0.016 mM and 0.011 mM and 0.012 mM. The “% B, Average” value on Human Serum Albumin [2] (0.5 mM complex in human serum, 37° C., average of triplicate) came to 97.19%. Besides, on Human Serum Albumin [2] (0.5 mM complex in human serum, 37° C., single ultrafiltrations, trisodium salt), the “% B (percent of Gd(III)-complex bound to serum proteins)” value was 96.52% and 97.65% and 97.39%.

Turning to `CC(=O)O[C@H]1C(=O)[C@@]2(C)[C@H]([C@H](OC(=O)c3ccccc3)[C@]3(O)C[C@H](OC(=O)[C@H](O)[C@@H](NC(=O)c4ccccc4)c4ccccc4)C(C)=C1C3(C)C)[C@]1(OC(C)=O)CO[C@@H]1C[C@@H]2O` [PTX, Paclitaxel], in data set [3] (between 400 and about 700 μm from the nearest vessel wall), the “Cy5-CTX fluorescence (fAUC), treated versus untreated tumors” value is recorded as “higher fluorescence”. In addition, the “Cy5-CTX fAUC, treated versus untreated tumors” value in data set [3] (whole tested range from 0 to 700 μm) is “No differences”.
